Laboratory results reported in patent US20090239841A1, “Diaryl Ureas as CB1 Antagonists” (priority 2004, published 2009).
pIC50: −log10 of the molar value.

Target: T1, hCB1 (Homo sapiens, UniProt P21554)
T1 construct: made in house; host or cells: Sf9 insect cells (baculovirus), P2 membranes
Assay: Agonist-induced GTP binding (GTPγ35S) assay at CB1, Example 8
Assay type: biochemical
Conditions: IC50 at CB1, determined as described in Example 8; read-out: IC50
Outline: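 Antagonism read as inhibition of 1 nM CP55,940-stimulated GTPγ35S ([…]) binding, compounds at 10^−10 to 10^−5 M. Baculovirus-infected Sf9 membranes bearing hCB1 plus G-protein subunits, 60 min room-temperature incubation with 5 μM GDP. Filtration and scintillation counting; data as percent over basal.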

T1 sequence (P21554 whole entry): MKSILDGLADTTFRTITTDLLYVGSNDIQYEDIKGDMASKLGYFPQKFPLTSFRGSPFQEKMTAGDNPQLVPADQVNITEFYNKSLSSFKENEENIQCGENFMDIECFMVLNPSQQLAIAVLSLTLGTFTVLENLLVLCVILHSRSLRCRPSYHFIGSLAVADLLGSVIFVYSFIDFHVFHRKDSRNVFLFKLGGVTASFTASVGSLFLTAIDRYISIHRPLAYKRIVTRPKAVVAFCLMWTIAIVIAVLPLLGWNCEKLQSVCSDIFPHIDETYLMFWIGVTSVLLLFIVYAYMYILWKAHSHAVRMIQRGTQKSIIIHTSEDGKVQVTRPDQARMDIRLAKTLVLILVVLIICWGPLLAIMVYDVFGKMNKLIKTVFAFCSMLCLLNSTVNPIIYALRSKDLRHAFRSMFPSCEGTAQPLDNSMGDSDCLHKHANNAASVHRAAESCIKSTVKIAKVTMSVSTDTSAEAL

Row | pIC50 | SMILES
1 | > 5.70 | CCOC(=O)c1ccc(NC(=O)Nc2ccc(F)cc2C(F)(F)F)cc1 [Compound 778, ethyl 4-[({[4-fluoro-2-(trifluoromethyl)phenyl]amino}carbonyl)amino]benzoate]
2 | > 5.70 | CCOC(=O)c1ccc(NC(=O)Nc2ccc(Cl)nc2)cc1 [Compound 779, ethyl 4-({[(6-chloropyridin-3-yl)amino]carbonyl}amino)benzoate]
3 | > 5.70 | Cc1ccc(NC(=O)Nc2ccc(Cl)nc2)cc1C [Compound 780, 1-(6-chloropyridin-3-yl)-3-(3,4-dimethylphenyl)urea]
4 | > 5.70 | Cc1ccc(NC(=O)Nc2ccc(Cl)nc2)cc1F [Compound 781, 1-(6-chloropyridin-3-yl)-3-(3-fluoro-4-methylphenyl)urea]
5 | > 5.70 | CCOC(=O)c1cccc(NC(=O)Nc2cccc(OC(F)F)c2)c1 [Compound 782, ethyl 3-[({[3-(difluoromethoxy)phenyl]amino}carbonyl)amino] benzoate]
6 | > 5.70 | N#CCOc1ccc(NC(=O)Nc2cccc(OC(F)F)c2)cc1 [Compound 783, N-[4-(cyanomethoxy)phenyl]-N′-[3-(difluoromethoxy)phenyl]urea]
7 | > 5.70 | O=C(Nc1ccc(Cn2cncn2)cc1)Nc1cccc(OC(F)F)c1 [Compound 784, N-[3-(difluoromethoxy)phenyl]-N′-[4-(1H-1,2,4-triazol-1-ylmethyl)phenyl]urea]
8 | > 5.70 | CN(CCc1cccc(NC(=O)Nc2cccc(OC(F)F)c2)c1)S(C)(=O)=O [Compound 785, N-(2-{3-[({[3-(difluoromethoxy)phenyl]amino}carbonyl)amino]phenyl}ethyl)-N-methylmethane-sulfonamide]
9 | > 5.70 | O=C(Nc1ccc(Cn2ccnc2)cc1)Nc1ccc(OC(F)F)cc1 [Compound 786, N-[4-(difluoromethoxy)phenyl]-N′-[4-(1H-irnidazol-1-ylmethyl)phenyl]urea]
10 | > 5.70 | O=C(Nc1ccc(Cn2cncn2)cc1)Nc1ccc(OC(F)F)cc1 [Compound 787, N-[4-(difluoromethoxy)phenyl]-N′-[4-(1H-1,2,4-triazol-1-ylmethyl)phenyl]urea]
11 | > 5.70 | CN1CCN(S(=O)(=O)c2cccc(NC(=O)Nc3cccc(OC(F)F)c3)c2)CC1 [Compound 788, N-[3-(difluoromethoxy)phenyl]-N′-{3-[(4-methyl-1-piperazinyl)sulfonyl]phenyl}urea]
12 | > 5.70 | O=C(Nc1ccc(S(=O)(=O)N2CCNCC2)cc1)Nc1cccc(OC(F)F)c1 [Compound 789, N-[3-(difluoromethoxy)phenyl]-N′-[4-(1-piperazinylsulfonyl)phenyl]urea]
13 | > 5.70 | CN1CCN(S(=O)(=O)c2ccc(NC(=O)Nc3cccc(OC(F)F)c3)cc2)CC1 [Compound 790, N-[3-(difluoromethoxy)phenyl]-N′-{4-[(4-methyl-1-piperazinyl)sulfonyl]phenyl}urea]
14 | > 5.70 | CCn1nnnc1-c1ccc(NC(=O)Nc2cccc(OC(F)F)c2)cc1 [Compound 791, N-[3-(difluoromethoxy)phenyl]-N′-[4-(1-ethyl-1H-tetrazol-5-yl)phenyl]urea]
15 | > 5.70 | CCn1nnc(-c2ccc(NC(=O)Nc3cccc(OC(F)F)c3)cc2)n1 [Compound 792, N-[3-(difluoromethoxy)phenyl]-N′-[4-(2-ethyl-2H-tetrazol-5-yl)phenyl]urea]
16 | > 5.70 | NC(=O)CN1CCN(S(=O)(=O)c2ccc(NC(=O)Nc3cccc(OC(F)F)c3)cc2)CC1 [Compound 793, 2-[4-({4-[({[3-(difluoromethoxy)phenyl]amino}carbonyl)amino]phenyl}sulfonyl)-1-piperazinyl] acetamide]
17 | > 5.70 | Cn1nnnc1-c1cccc(NC(=O)Nc2ccc(Cn3ccnn3)cc2)c1 [Compound 794, N-[3-(1-methyl-1H-tetrazol-5-yl)phenyl]-N′-[4-(1H-1,2,3-triazol-1-ylmethyl)phenyl]urea]
